Measurements: patent US20240215583A1, “PLANT BIOLOGIC INCLUDING PYRROLOQUINOLINE QUINONE (PQQ)” (Dakota Bio LLC, priority 2022, published 2024)
Converted amounts (≈) assume the structure as drawn.

Test: physchem
Format: physicochemical
Details: 25 °C, water
Excerpt: For instance, it has been observed that PQQ can be difficult to dissolve in liquid mixtures. […] In most cases, rather than dissolving, PQQ is initially suspended within a liquid solution, but the PQQ later settles out of this suspension. Once settled, the PQQ generally becomes ineffective and is inaccessible for a plant to uptake. For example, the PQQ quickly settles out of suspension onto the bottom of any storage container which in turn inhibits the spraying or otherwise applying the PQQ onto the plants and/or soil. This inability for PQQ to remain dissolved and/or suspended is exacerbated when out in commercial agricultural fields, because the solution is typically kept in large drums or other large containers that are difficult to agitate or otherwise move so as to maintain the suspension. Moreover, there is currently no commercially practical way to dissolve PQQ in a liquid mixture to mass produce a product useful in agricultural and/or horticultural situations (i.e., growing of ornamental plants).

Compound: O=C(O)c1cc(C(=O)O)c2c(n1)C(=O)C(=O)c1cc(C(=O)O)[nH]c1-2 [PQQ, 4,5-Dioxo-4,5-dihydro-1H-pyrrolo[2,3-f]quinoline-2,7,9-tricarboxylic acid]
- solubility: ~212 µg/mL (≈ 641 µM)
